A short description of this series: physchem.

In general, logP refers to the decadic logarithm of the partition coefficient of the neutral form, usually between octanol and water. A low value points to a more hydrophilic compound.

Turning to `CC1COC(=O)O1` (stereo not shown) [propylene carbonate], the logP was -0.41.

Values taken from patent US10959925B2, “Hair cosmetic composition” (KAO CORPORATION, priority 2016, dated 2021).
